Tests used:
Format in all cases: in vivo
[1] = tested on: Rice Armyworm (Mythimna Separata); test: Efficacy test against rice armyworm, corn leaf dip; settings: 125 ppm, emulsifiable concentrate diluted with water, corn leaves immersed, second instar larvae, after 5 days, 25° C.
Method: (§1) Test Examples of the pest control agent thus obtained according to the present invention are shown below. In respective Test Examples, the insecticidal rate (%) was determined by the following calculation equation. Insecticidal rate (%)=(number of dead pests/number of released pests)×100
The emulsifiable concentrate obtained according to Formulation of Formulation Example 2 was diluted with water so as to control the concentration of the compound to 125 ppm. Leaves of corn were immersed in this diluted solution for 30 seconds and then air-dried. The leaves were put in a petri dish on which a filter paper is laid, and then five second instar larvae of rice armyworm were inoculated. After covering the petri dish with a glass lid, the petri dish was placed in a temperature-controlled room at a temperature of 25° C. and a humidity of 65%. After 5 days, life and death were examined and the insecticidal rate was determined. The test was repeated twice.

[2] = tested on: Sweetpotato Whitefly (Bemisia Tabaci); test: Efficacy test against sweetpotato whitefly, sprayed tomato leaf; settings: 125 ppm, emulsifiable concentrate diluted with water, adults (type B), after 2 days, 25° C.
Method: as §1
The emulsifiable concentrate obtained according to Formulation of Formulation Example 2 was diluted with water so as to control the concentration of the compound to 125 ppm. The diluted solution was sprayed over a tomato leaf obtained by cutting and then air-dried. Using absorbent cotton, the leaf was fixed to a flask so that a front surface of the leaf faces upward. Seven pairs of adults of sweetpotato whitefly (type B) were inoculated in this container, and the container was placed in a temperature-controlled room at a temperature of 25° C. and a humidity of 65%. After 2 days, life and death were examined and the insecticidal rate was determined. The test was repeated twice.

[3] = tested on: Cotton Aphid (Aphis Gossypii); test: Efficacy test against cotton aphid, spray on cucumber plant; settings: 125 ppm, emulsifiable concentrate diluted with water, sprayed over cucumber plant with nymphs, after 5 days, 25° C.
Method: as §1
The emulsifiable concentrate obtained according to Formulation of Formulation Example 2 was diluted with water so as to control the concentration of the compound to 125 ppm. Adults of cotton aphids were inoculated to a cucumber plant (approximately 10 days after sprouting) sown in a 3 sun/size pot (9 cm). After 1 day, adult aphids were removed and the diluted solution was sprayed over the cucumber plant on which delivered nymphs are parasitic. The pot was placed in a temperature-controlled room at a temperature of 25° C. and a humidity of 65%. After 5 days, life and death were examined and the insecticidal rate was determined. The test was repeated twice.

Structure (SMILES)	insecticidal rate [1] [%]	insecticidal rate [2] [%]	insecticidal rate [3] [%]
C=C1SC(=Nc2ccc(C)cc2)C(=CSc2ccc3ccccc3c2)CC1(C)C (mixture of isomers) [Compound 2-88]	100	100	–
C=C1SC(=Nc2ccc(C)cc2)C(=CSc2ccc([N+](=O)[O-])cc2)CC1(C)C (mixture of isomers) [Compound 6-4]	100	–	–
C=C1SC(=Nc2ccc(C)cc2)C(=CSC2CCCCC2)CC1(C)C (mixture of isomers) [Compound 6-5]	100	100	–
C=C1SC(=Nc2ccc(C)cc2)C(=CSC2CCc3ccccc32)CC1(C)C (racemic) [Compound 2-115]	100	100	–
C=C1SC(=Nc2ccc(OC)cc2)C(=CSc2ccccc2)CC1(C)CCC=C(C)C (racemic) [Compound 2-130]	100	100	–
CC(C)=C1CC(=CSc2ccccc2)C(=Nc2ccc(Cl)cc2)S1 [Compound 1-2]	100	100	–
CC(C)=C1CC(=CSc2ccccc2)C(=[NH+]c2ccc(Cl)cc2)S1.F[B-](F)(F)F [Compound 1-3]	100	100	–
C=C1CCC(=CSc2ccccc2)C(=Nc2ccc(Cl)cc2)S1 [Compound 2-1]	100	100	–
C=C1CCC(=CSc2ccccc2)C(=Nc2ccc(C(F)(F)F)cc2)S1 [Compound 2-5]	100	100	–
C=C1CCC(=CSc2ccccn2)C(=Nc2ccc(C)cc2)S1 [Compound 2-7]	–	–	100
C=C1CCC(=CSc2ccccc2)C(=Nc2ccc(OC)cc2)S1 [Compound 2-8]	100	100	100
C=C1CCC(=CSc2ccc(F)cc2)C(=Nc2ccc(OC)cc2)S1 [Compound 2-9]	100	100	100
C=C1SC(=Nc2ccc(OC)cc2)C(=CSc2ccccc2)CC1(C)C [Compound 2-16]	100	100	100
C=C1SC(=Nc2ccc(C)cc2)C(=CSc2ccc(OC)cc2)CC1(C)C [Compound 2-18]	100	100	100
C=C1SC(=Nc2ccc(C)cc2)C(=CSc2ccccc2OC)CC1(C)C [Compound 2-19]	100	100	100
C=C1SC(=Nc2ccc(C)cc2)C(=CSc2ccc(NC(C)=O)cc2)CC1(C)C [Compound 2-21]	100	–	–
COc1ccc(N=C2SC(=C(C)C)CCC2=CSc2ccc(F)cc2)cc1 [Compound 2-22]	100	100	100
COc1ccc(N=C2SC(=C(C)C)CCC2=CSc2ccccc2)cc1 [Compound 2-23]	–	–	100
C=C1SC(=Nc2ccc(C)cc2)C(=CSc2ccc(F)cc2)CC12CCCCC2 [Compound 2-24]	100	100	–
C=C1SC(=Nc2cccc(OC)c2)C(=CSc2ccccc2)CC1(C)C [Compound 2-25]	100	100	100
C=C1SC(=Nc2ccc(C)cc2Cl)C(=CSc2ccccc2)CC1(C)C [Compound 2-26]	100	100	100
C=C1SC(=Nc2cccc(Cl)c2)C(=CSc2ccccc2)CC1(C)C [Compound 2-29]	100	100	100
C=C1SC(=Nc2ccc(OC)cc2OC)C(=CSc2ccccc2)CC1(C)C [Compound 2-30]	100	–	100
C=C1SC(=Nc2c(F)cccc2F)C(=CSc2ccccc2)CC1(C)C [Compound 2-31]	100	100	100
C=C1SC(=Nc2ccc(OC)cc2F)C(=CSc2ccccc2)CC1(C)C [Compound 2-33]	100	100	100
C=C1SC(=Nc2cccc(Cl)c2Cl)C(=CSc2ccccc2)CC1(C)C [Compound 2-37]	100	100	100

Structure (SMILES)	insecticidal rate [1] [%]	insecticidal rate [2] [%]	insecticidal rate [3] [%]
C=C1SC(=Nc2ccc3c(c2)OCO3)C(=CSc2ccccc2)CC1(C)C [Compound 2-39]	100	100	100
C=C1SC(=Nc2ccc(OC)cc2C)C(=CSc2ccc(OC)cc2)CC1(C)C [Compound 2-42]	100	100	100
COc1ccc(N=C2SC(=C(C)C)CCC2=CSc2ncccn2)cc1 [Compound 2-43]	100	–	–
C=C1SC(=Nc2cc(Cl)ccc2Cl)C(=CSc2ccccc2)CC1(C)C [Compound 2-44]	100	100	–
C=C1SC(=Nc2ccc(OC)cc2)C(=CSc2ncccn2)CC1(C)C [Compound 2-47]	100	100	100
C=C1CCC(=CSc2ccccc2)C(=Nc2ccsc2)S1 [Compound 2-52]	100	100	100
C=C1SC(=Nc2ccccc2)C(=CSc2ccccc2)CC1(C)C [Compound 2-53]	100	100	100
C=C1SC(=Nc2ccccc2)C(=CSc2ccc(F)cc2)CC1(C)C [Compound 2-54]	100	100	100
C=C1SC(=Nc2ccc(OC)cc2)C(=COc2ccccc2)CC1(C)C [Compound 2-55]	100	100	100
C=C1SC(=Nc2ccc(C)cc2)C(=CSc2ccc(F)cc2)CC12CCOCC2 [Compound 2-57]	100	100	100
C=C1SC(=Nc2ccc(OC)cc2)C(=CSC2CCCC2)CC1(C)C [Compound 2-58]	100	100	100
C=C1SC(=Nc2c(C)cccc2C)C(=CSc2ccccc2)CC1(C)C [Compound 2-62]	100	100	100
C=C1SC(=Nc2ccc(C)cc2)C(=CSC(C)(C)C)CC1(C)C [Compound 2-74]	100	100	–
C=C1SC(=Nc2ccc(OC)cc2)C(=CSc2ccc(C=O)cc2)CC1(C)C [Compound 2-82]	100	–	–
C=C1SC(=Nc2ccc(OC)cc2)C(=CSc2ccc(C(F)(F)F)cn2)CC1(C)C [Compound 2-95]	100	100	–
C=C1SC(=Nc2ccc(C)cc2)C(=CSc2ccccc2CO)CC1(C)C [Compound 2-96]	100	–	–
C=C1SC(=Nc2ccc(OC)cc2)C(=CSc2cccc(Oc3ccccc3)c2)CC1(C)C [Compound 2-109]	–	100	–
C=C1SC(=Nc2ccc(C)cc2)C(=CSc2sccc2OC)CC1(C)C [Compound 2-116]	100	100	–
C=C1SC(=Nc2ccc(C)cc2)C(=CSc2cc(C)oc2C)CC1(C)C [Compound 2-123]	100	100	–
C=C1SC(=Nc2ccc(C)cc2)C(=CSc2cc(C(F)(F)F)ccn2)CC1(C)C [Compound 2-126]	100	–	100
C=C1SC(=Nc2ccccc2)C(=CSc2nc(C)cnc2C)CC1(C)C [Compound 2-131]	100	100	–
C=C1SC(=Nc2ccc(C)cc2)C(=CSc2nccc(OC)n2)CC1(C)C [Compound 2-133]	100	100	–
C=C1CCC(=CSc2ccccn2)C(=Nc2ccc(C)cc2)S1 [Compound 4-1]	100	–	–
C=C1SC(=Nc2ccc(OC)cc2)C(=CSc2ccccn2)CC1(C)C [Compound 4-2]	100	–	–
C=C1SC(=Nc2ccc(C)cc2)C(=CSc2nccs2)CC1(C)C [Compound 4-3]	–	100	–
C=C1SC(=Nc2ccc(OC)cc2)C(=CSc2cccs2)CC1(C)C [Compound 4-4]	100	100	–

Source: patent publication US9012493B2, “1-heterodiene derivative and pest control agent” (Nippon Soda Co., Ltd., priority 2009, dated 2015)
